Results reported in US20100291591A1, “NOVEL PLATING MEDIA” (priority 2007, published 2010).

Test system: S. aureus
Experiment: Tolerance of S. aureus towards ELF phosphate in S. aureus plating media
Format: cell-based
Conditions: for Colony Growth: visual inspection relative to media without ELF phosphate
Source text: Varying concentrations of ELF® phosphate in S. aureus plating media were used to determine the effect on growth and sensitivity of S. aureus to ELF® phosphate. Colony growth in the presence of ELF® phosphate was compared to colony growth in media without ELF® phosphate.

`O=P(O)(O)O.O=c1[nH]c(-c2cc(Cl)ccc2O)nc2ccc(Cl)cc12` [ELF ® Phosphate, 6-chloro-2-(5-chloro-2-hydroxyphenyl)-quinazolin-4(3H)-one phosphate] was tested, and the “Colony Growth” value (ELF phosphate 0.080 g/L) was “Normal”, the “Colony Growth” value (ELF phosphate 0.200 g/L) was “Normal” and the “Colony Growth” value (ELF phosphate 0.400 g/L) was “Normal”. The “Colony Growth” value (ELF phosphate 0.600 g/L) was “Normal”, the “effect of concentration on growth” value (S. aureus plating media, 0.080-0.600 g/L) was “no effect on growth” and the “inhibition of the growth of S. aureus strains” value (concentrations of 500 mg/L and higher) was “do not significantly inhibit”.
